Reference: patent publication US20120232062A1, “AZAINDAZOLES TO TREAT FLAVIVIRIDAE VIRUS INFECTION” (EIGER BIOPHARMACEUTICALS, INC., priority 2009, published 2012)
Read-outs that look alike come from different tables or passages of the source.

How the values were obtained:
HCV genotype 1b = assay: HCV 1b replicon luciferase assay; format: cell-based; settings: Table 1, Huh7 HCV 1b replicon, luciferase reporter, 48 hours, read-out: 1b EC50
Outline: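 Huh7 cells carrying a genotype 1b replicon with stable luciferase reporter, 10k cells/well, were treated 48 h at 37 °C with 10-point 5-fold dilutions from 25 μM (0.1% DMSO), in duplicate. Replication was read as Steady-Glo luminescence.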

[1] = Caco-2 permeability testing; format: in vitro ADME, human; settings: human, 90 min; for Papp A→B at 90 min, 10 µM: read-out: Permeability (second figure of Efflux/permeability), Papp (A-B); for Papp B→A at 90 min, 10 µM: read-out: Efflux (first figure of Efflux/permeability), Papp (B-A)
Description: Intestinal epithelium permeability is a critical characteristic that determines the rate and extent of human absorption and affects bioavailability of a drug candidate. Poor intestinal permeability leads to limited absorption. Generally, higher absorption is preferred. The Caco-2 cell line is a human colon adeno-carcinoma cell line that resembles the epithelial lining of the human small intestine. Several transport proteins that are expressed in human intestinal epithelium are also expressed in the Caco-2 cell model. Some transporter proteins are efflux systems which mediate the secretion of compounds from inside the cell back to the apical lumen (representative of the intestinal lumen), limiting overall absorption. In a permeability assay, the apparent permeability coefficient is measured between the apical to basolateral sides of a cell monolayer, Papp (A-B), and the basolateral to the apical side, Papp (B-A). Papp (A-B)<2×10^−6 cm/s is predictive of low permeability to the basolateral side, 2×10^−6 cm/s<Papp (A-B)<20×10^−6 cm/s is predictive of medium permeability, and Papp (A-B)>20×10^−6 cm/s is predictive of high permeability. In the B-A permeability assay, Papp (B-A) is measured and compounds evaluated for efflux potential. Together, these assay results are reported as a ratio of Papp (B-A) to Papp (A-B). Papp (B-A)/Papp (A-B)>3 are likely to be transported by one of the efflux systems, and have poor absorption. Papp (B-A)/Papp (A-B)<3 are likely to show reasonable intestinal absorption. An in vitro drug absorption assay suitable for use in predicting intestinal absorption of the compounds useful in the methods of the invention is described in this example. The embodiments of this assay described in this example were developed by Shanghai ChemPartner Co., Ltd., a corporation of China with its principal office located at 720 Cailun Road, Building No. 3, Shanghai 201203, China.
Caco-2 (ATCC, catalog No. HTB-37™) cells are cultured in growth medium (MEM+10% FBS+1% NEAA). The growth medium is prepared by adding 50 mL FBS and 5 mL NEAA to 445 mL of MEM or by adjusting the final volume according to actual needs. Trypsin-EDTA (Invitrogen, Cat #25200-072) is also used.
Hanks Balanced Salt Solution (HBSS, Invitrogen, Cat #14025-092) with 25 mM HEPES, pH 7.4, HBSS buffer with 0.2% DMSO (50 μL DMSO into 25 ml HBSS buffer), and HBSS buffer with 0.4% DMSO (100 μL DMSO into 25 ml HBSS buffer) are used.
10 mM stock solutions of a compound is prepared in DMSO and Lucifer Yellow in assay buffer using the formula (Actual Weight/Molecular Weight)/mL solvent=10 mM. Erythromycin, Metoprolol, and Atenolol are used as reference compounds. Donor solutions (10 μM for compounds and 5 μM for Lucifer Yellow) are prepared. For A-B, 4 μL of 10 mM compound stock solution and 2 μL of 10 mM Lucifer Yellow stock solution are loaded into 4 mL of HBSS buffer, and centrifuged (5 min, 4000 rpm) to precipitate undissolved particles. Supernatants are collected for compound dosing. For B-A, 4 μL (compounds) of 10 mM compound stock solution is added to 4 mL HBSS buffer with 0.2% DMSO, and centrifuged (5 min, 4000 rpm) to precipitate undissolved particles. Supernatants are collected for compound dosing.
Receiver solutions are prepared. For A-B, the solution is HBSS buffer with 0.4% DMSO. For B-A, 2 μL of 10 mM Lucifer Yellow stock solution is added to 4 mL of HBSS buffer with 0.2% DMSO. Compound solutions are prepared for standard curve (3 μM/1 μM/0.2 μM/0.04 μM/0.01 μM/0.005 μM):
1× solution: 3 μL of 20× solution (0.1-60 μM)+57 μL 0.4% DMSO HBSS+60 μL acetonitrile (ACN) with internal standard (IS, 200 ng/mL Osalmid). The assay was performed as described below
Stock cultures are maintained in MEM+10% FBS+1% NEAA, grown in 75 cm^2 tissue culture treated flasks and split (passed) 2 times weekly to maintain desired confluence. For maintenance passage, trypsinized cells are routinely distributed into new flasks at a standard passage ratio of 1:4. […]

| Structure (SMILES) | EC50 (HCV genotype 1b; Hepatitis C virus, Huh-7, 48 h) [µM] | Papp A→B at 90 min, 10 µM ([1]; Caco-2, pH 7.4, Caco-2, A-B) [nm/s] | Papp B→A at 90 min, 10 µM ([1]; Caco-2, pH 7.4, Caco-2, B-A) [nm/s] | Papp A→B at 90 min, 10 µM ([1]; pH 7.4, Caco-2, A-B) [nm/s] | Papp B→A at 90 min, 10 µM ([1]; pH 7.4, Caco-2, B-A) [nm/s] | EC50 (HCV genotype 1b) [µM] |
| --- | --- | --- | --- | --- | --- | --- |
| Cn1nc(C(=O)NC2CCN(CCN3CCOCC3)CC2)c2ccc(NC3CCCCCCC3)nc21 [compound 1471] | 0.87 | 109 | 96 |  |  |  |
| CC(C)N1CCC(NC(=O)c2nn(C)c3nc(N4CCCCCCC4)ccc23)CC1 [compound 1307] | 1 | 96 | 42 |  |  |  |
| Cn1nc(C(=O)NC2CCN(CC3CCCCC3)CC2)c2ccc(N3CCCCCCC3)cc21 [compound 1150] | 0.6 | 14 | 57 |  |  |  |
| CCCC(C)CN1CCC(NC(=O)c2nn(C)c3nc(N4CCCCCCC4)ccc23)CC1 (stereo not shown) [compound 1308] | 0.48 | 4 | 2 |  |  |  |
| CCC(CC)Oc1ccc2c(C(=O)NC3CCN(CC4CCCCC4)CC3)nn(C)c2n1 [compound 1074] | 0.88 | 66 | 16 |  |  |  |
| Cn1nc(C(=O)NCc2cccs2)c2cc(N3CCCCC3)cnc21 [compound 1146] | 7.5 | 220 | 210 |  |  |  |
| Cc1ccc(C(=O)Nc2nn(C)c3nc(N4CCCCCC4)ccc23)s1 [compound 841] | 1.6 | 97 | 19 |  |  |  |
| Cn1nc(-c2cnc(C(=O)NCc3cccs3)s2)c2ccc(N3CCCCCC3)nc21 [compound 1129] | 0.83 | 60 | 40 |  |  |  |
| Clc1ccc(Cn2nc(COCCN3CCCC3)c3ccc(N4CCCCCCC4)nc32)cc1 [compound 1203] | 3.3 | 78 | 73 |  |  |  |
| Cn1nc(C(=O)NC2CCN(CCN3CCCC3)CC2)c2ccc(NC3CCCCCCC3)nc21 [compound 1469] | 0.25 | 9 | 29 |  |  |  |
| O=C(NC1CCNCC1)c1nn(Cc2ccccc2Cl)c2nc(N3CCCCCC3)ccc12 [compound 853] | 2.9 |  |  | 4 | 4 |  |
| CN1CCC(NC(=O)c2nn(C)c3nc(N4CCCCCCC4)ccc23)CC1 [compound 1306] | 0.36 | 91 | 44 |  |  |  |
| CCCN1CCC(NC(=O)c2nn(C)c3nc(NC4CCCCCCC4)ccc23)CC1 [compound 1475] | 0.83 | 59 | 63 |  |  |  |
| Cn1nc(C(=O)NC2CCN(CCN3CCC(CO)CC3)CC2)c2ccc(N3CCCCCC3)nc21 [compound 1560] | 0.86 | 20 | 131 |  |  |  |
| COc1ccc(CN2CCC(NC(=O)c3nn(C)c4nc(N5CCCCCC5)ccc34)CC2)cc1 [compound 1116] |  | 5 | 3 |  |  | 1.3 |
| CC1CCCCN1CCN1CCC(NC(=O)c2nn(C)c3nc(N4CCCCCC4)ccc23)CC1 (stereo not shown) [compound 1425] | 0.5 | 30 | 40 |  |  |  |
| Cn1nc(C(=O)NC2CCN(CC3CCOCC3)CC2)c2ccc(N3CCCCCC3)nc21 [compound 1072] | 2.5 | 54 | 46 |  |  |  |
| O=C(NC1CCN(CCN2CCCCC2)CC1)c1nn(CC(F)F)c2nc(N3CCCCCC3)ccc12 [compound 1488] | 0.64 | 33 | 35 |  |  |  |
| Cn1nc(C(=O)NC2CCN(CCN3CCCCCC3)CC2)c2ccc(N3CCCCCCC3)nc21 [compound 1310] | 0.23 | 13 | 21 |  |  |  |
| CC1CCC(C)N1CCN1CCC(NC(=O)c2nn(C)c3nc(N4CCCCCC4)ccc23)CC1 (stereo not shown) [compound 1562] | 1.9 | 67 | 63 |  |  |  |
| CCN1CCC(NC(=O)c2nn(C)c3nc(N4CCCCCCC4)ccc23)CC1 [compound 1225] | 1.2 | 64 | 32 |  |  |  |
| Cn1nc(C(=O)NC2CCN(S(C)(=O)=O)CC2)c2ccc(N3CCCCCC3)nc21 [compound 1063] |  | 500 | 160 |  |  | 3.9 |
| Cn1nc(C(=O)NC2CCN(CC#N)CC2)c2ccc(NC3CCCCCCC3)nc21 [compound 1479] | 0.92 |  |  |  |  |  |
| Cn1nc(C(=O)NC2CCN(Cc3ccccc3Cl)CC2)c2ccc(N3CCCCCC3)nc21 [compound 1037] | 3.4 |  |  |  |  |  |
| Cn1nc(-c2coc(CC3CCNCC3)n2)c2ccc(N3CCCCCC3)nc21 [compound 1096] | 2.8 |  |  |  |  |  |
| Cn1nc(-c2cnc(C3CCCN(Cc4ccc(OC(F)F)cc4)C3)s2)c2ccc(N3CCCCCCC3)nc21 (stereo not shown) [compound 1257] | 2.4 |  |  |  |  |  |
